Key:
Format in all cases: physicochemical
[1] = pH time course following dissolution in water; details: for pH following dissolution in water: room temperature, ambient air
Protocol: (§1) 10 ml sterile water was added to the reference formulation lyophile of 5,10-MTHF and to each of the test formulation lyophiles to give a final concentration of 10 mg/ml (this dissolution volume and concentration corresponds to the most current recommended clinical use guidelines for 5,10-MTHF for cancer therapy). The nonformulated 5,10-MTHF was dissolved in water to a concentration of 6 mg/ml. The lower concentration of nonformulated 5,10-MTHF was due to the fact that nonformulated 5,10-MTHF has a maximum solubility in water of approximately 6 mg/ml (when dissolved in a trisodium citrate, 5,10-MTHF has a much higher (>10 mg/ml) solubility). Samples were stored at room temperature under ambient air conditions to mimic as close as possible expected real-world use.
The pH of 5,10-MTHF dissolved in water was measured at multiple time points using a digital pH meter.

[2] = Solubility of 5,10-MTHF in water
Protocol: as §1

[3] = 5,10-MTHF stability following dissolution in water by HPLC; details: for % Normalized Purity of 5,10-MTHF: room temperature
Protocol: as §1
The stability of 5,10-MTHF dissolved in water was measured by HPLC. Data is reported as the normalized purity of 5,10-MTHF based on the starting purity according to the following formula: % Normalized Purity=(% 5,10-MTHF Time X)÷(% 5,10-MTHF Time 0)×(100)
5,10-MTHF stability kinetics were estimated by linear regression analysis (GraphPad Prism software).

## Nc1nc2c(c(=O)[nH]1)N1CN(c3ccc(C(=O)N[C@@H](CCC(=O)O)C(=O)O)cc3)CC1CN2 (some centres unmarked) [Nonformulated, 5,10-methylenetetrahydrofolate]
[1]; 0 hours
  pH following dissolution in water: 6.88
[1]; 0.25 hours
  pH following dissolution in water: 6.89
[1]; 0.5 hours
  pH following dissolution in water: 6.87
[1]; 0.75 hours
  pH following dissolution in water: 6.85
[1]; 1 hour
  pH following dissolution in water: 6.83
[1]; 2 hours
  pH following dissolution in water: 6.77
[1]; 4 hours
  pH following dissolution in water: 6.80
[1]; 6 hours
  pH following dissolution in water: 6.83
[1]; 8 hours
  pH following dissolution in water: 6.81
[1]; 24 hours
  pH following dissolution in water: 6.79
[1]; starting and steady state pH over 24 hours
  pH following dissolution in water (approximate, text summary): ~6.9
[2]; dissolved in a trisodium citrate
  solubility when dissolved in trisodium citrate: > 10 mg/mL
[2]; nonformulated, water
  maximum solubility in water: approximately 6 mg/ml
[3]; 0 hours after dissolution in water
  % Normalized Purity of 5,10-MTHF: 100.0%
[3]; 0.5 hours after dissolution in water
  % Normalized Purity of 5,10-MTHF: 94.9%
[3]; 1 hour after dissolution in water
  % Normalized Purity of 5,10-MTHF: 92.4%
[3]; 2 hours after dissolution in water
  % Normalized Purity of 5,10-MTHF: 90.3%
[3]; 4 hours after dissolution in water
  % Normalized Purity of 5,10-MTHF: 85.9%
[3]; 8 hours after dissolution in water
  % Normalized Purity of 5,10-MTHF: 77.8%
[3]; 12 hours after dissolution in water
  % Normalized Purity of 5,10-MTHF: 69.6%
[3]; 18 hours after dissolution in water
  % Normalized Purity of 5,10-MTHF: 55.1%
[3]; 24 hours after dissolution in water
  % Normalized Purity of 5,10-MTHF: 44.9%
[3]; slope of best-fit line, 0-24 hours
  Linear Regression Degradation Rate Following Dissolution in Water: −2.2 % Purity/Hours
